Data taken from patent US20190185499A1, “Novel Compounds” (Colgate-Palmolive Company, priority 2017, published 2019).

Test: Lack of precipitate formation in aqueous solution
Format: physicochemical
Conditions: ~5% concentration solution in water; after three months following its preparation
Description: 3.220 g of sodium ascorbyl phosphate is dissolved into 100 mL water and then 1.567 g of SnF2 is added. The mixture is stirred into completely solubilized and heat at 60 C for one hour. The solution is directly analyzed by 13C-NMR and diluted into 5000 ppm and analyzed by LC-MS.
In one aspect, a solution of ˜5% concentration of stannous ascorbyl phosphate is prepared as described in the above examples.

- formation of an observable precipitate: will not form an observable precipitate
Substance: stannous ascorbyl phosphate
